Series [1] has as its system Staphylococcus aureus. Nature of the series: Antibacterial activity against Staphylococcus aureus 794 infected in BALB/c mouse skin wound infection model assessed as wound healing at 1 mg/ml, ip pre-infected with bacteria for 24 hrs followed by compound addition and measured on day 11. In kind it is functional. The note with it: time 11.0 day.
The subject of series [2] is Staphylococcus aureus. Briefly: Antibacterial activity against kanamycin resistant Staphylococcus aureus incubated for 18 hrs by broth microdilution method. In kind it is functional. A general note: Dilution methods test growth across graded concentrations, often in twofold steps.
In series [3] the test system is Escherichia coli. Nature of the series: Antibacterial activity against rifampicin resistant Escherichia coli incubated for 18 hrs by broth microdilution method. In kind it is functional.
The subject of series [4] is Staphylococcus aureus. Nature of the series: Antibacterial activity against methicillin resistant Staphylococcus aureus 113 incubated for 18 hrs by broth microdilution method. The class given is functional.
Series [5] deals with Staphylococcus aureus. Briefly: Antibacterial activity against Staphylococcus aureus 794 infected in BALB/c mouse skin wound infection model assessed as wound healing at 1 mg/ml, ip pre-infected with bacteria for 24 hrs followed by compound addition and measured after 13 days post infection. The class given is functional, organism-based. The following applies: time 12.0 day.

The test system of series [6] is Staphylococcus aureus. Nature of the series: Antibacterial activity against Staphylococcus aureus 794 infected in BALB/c mouse skin wound infection model assessed as reduction in TNFalpha level at 1 mg/ml, ip pre-infected with bacteria for 24 hrs followed by compound addition and measured after 13 days post infection. The class given is functional, organism-based. The note with it: time 12.0 day.

The nature of series [7]: Toxicity in BALB/c mouse infected with Staphylococcus aureus 794 assessed as cell necrosis at 1 mg/ml, ip pre-infected with bacteria for 24 hrs followed by compound addition and measured after 13 days by H and E staining based histopathological analysis. In kind it is organism-based. The note with it: in vivo, 312 h, time 13 day.
A short description of series [8]: Toxicity in BALB/c mouse infected with Staphylococcus aureus 794 assessed as hyperkeratosis at 1 mg/ml, ip pre-infected with bacteria for 24 hrs followed by compound addition and measured after 13 days by H and E staining based histopathological analysis. The following applies: in vivo, 312 h, time 13 day. In kind it is organism-based.
The subject of series [9] is Staphylococcus aureus. Briefly: Antibacterial activity against Staphylococcus aureus incubated for 18 hrs by broth microdilution method. In kind it is functional.
The test system of series [10] is Staphylococcus aureus. Nature of the series: Antibacterial activity against methicillin resistant Staphylococcus aureus incubated for 18 hrs by broth microdilution method. In kind it is functional.
Series [11] relates to Staphylococcus aureus. Nature of the series: Antibacterial activity against Staphylococcus aureus S125 incubated for 18 hrs by broth microdilution method. In kind it is functional.
The subject of series [12] is Staphylococcus aureus. Nature of the series: Antibacterial activity against Staphylococcus aureus S794 incubated for 18 hrs by broth microdilution method. In kind it is functional.
Series [13] deals with Staphylococcus aureus. Nature of the series: Antibacterial activity against rifampicin resistant Staphylococcus aureus incubated for 18 hrs by broth microdilution method. In kind it is functional.
Series [14] can be described thus: Toxicity in BALB/c mouse infected with Staphylococcus aureus 794 assessed as inflammatory cell infiltration at 1 mg/ml, ip pre-infected with bacteria for 24 hrs followed by compound addition and measured after 13 days by H and E staining based histopathological analysis. The class given is organism-based. The note with it: in vivo, 312 h, time 13 day.
Series [15] relates to Staphylococcus aureus. Nature of the series: Antibacterial activity against Staphylococcus aureus 794 infected in BALB/c mouse skin wound infection model assessed as wound healing by measuring thickened scab at 1 mg/ml, ip pre-infected with bacteria for 24 hrs followed by compound addition and measured on day 9. The class given is functional, organism-based. The note with it: time 9.0 day.

Series [16] concerns Escherichia coli. Briefly: Antibacterial activity against kanamycin resistant Escherichia coli incubated for 18 hrs by broth microdilution method. In kind it is functional.
Series [17] deals with Staphylococcus aureus. Nature of the series: Antibacterial activity against Staphylococcus aureus ATCC 25923 infected in BALB/c mouse skin wound infection model assessed as reduction in wound bacterial load at 1 mg/ml, ip administered at 1 hr interval for total 6 treatment and measured after 1 hr post last dose. In kind it is functional, organism-based. The following applies: time 7.0 hrs.

The subject of series [18] is Staphylococcus aureus. Nature of the series: Antibacterial activity against methicillin resistant Staphylococcus aureus 75 incubated for 18 hrs by broth microdilution method. In kind it is functional.
The subject of series [19] is Escherichia coli. Briefly: Antibacterial activity against Escherichia coli incubated for 18 hrs by broth microdilution method. The class given is functional.

≈ marks a conversion by molar mass, not a printed value. Calls of active or inactive are those of the source. The rule behind the calls is not given here.

On to `CN[C@H](CC(C)C)C(=O)N[C@H]1C(=O)N[C@@H](CC(N)=O)C(=O)N[C@H]2C(=O)N[C@H]3C(=O)N[C@H](C(=O)N[C@H](C(=O)O)c4cc(O)cc(O)c4-c4cc3ccc4O)[C@H](O)c3ccc(c(Cl)c3)Oc3cc2cc(c3O[C@@H]2O[C@H](CO)[C@@H](O)[C@H](O)[C@H]2O[C@H]2C[C@](C)(N)[C@H](O)[C@H](C)O2)Oc2ccc(cc2Cl)[C@H]1O` [VANCOMYCIN], for which the outcome in the series on Staphylococcus aureus [1] was inactive. The MIC in the series with Staphylococcus aureus [2] was found to be 0.5 µM (≈ 0.725 µg/mL); against Escherichia coli [3] it was 128 µM (≈ 186 µg/mL); in the series with Staphylococcus aureus [4], 0.5 µM (≈ 0.725 µg/mL); against Staphylococcus aureus [9], 0.5 µM (≈ 0.725 µg/mL); in the series with Staphylococcus aureus [10] it was 0.5 µM (≈ 0.725 µg/mL); in the series with Staphylococcus aureus [11], 0.5 µM (≈ 0.725 µg/mL). Further, the MIC stood at 64 µM (≈ 92.8 µg/mL) with Staphylococcus aureus [12]; 128 µM (≈ 186 µg/mL) against Staphylococcus aureus [13]; 64 µM (≈ 92.8 µg/mL) against Escherichia coli [16]; 0.5 µM (≈ 0.725 µg/mL) against Staphylococcus aureus [18]; 64 µM (≈ 92.8 µg/mL) in the series on Escherichia coli [19]. Also, the outcome in the series on Staphylococcus aureus [5], in the series on Staphylococcus aureus [6], in the series with Staphylococcus aureus [15] and in the series with Staphylococcus aureus [17] was Active. Besides, the Activity entry in series [7], in [8] and in [14] was “Toxic” throughout.

A word on the MIC: it is the lowest concentration that inhibits growth of the organism.

Values taken from ChEMBL document CHEMBL5543109, “Novel β-Hairpin Antimicrobial Peptide Containing the β-Turn Sequence of -NG- and the Tryptophan Zippers Facilitate Self-Assembly into Nanofibers, Exhibiting Excellent Antimicrobial Performance” (J Med Chem, 2024).
